Laboratory results from patent US10689354B2, “Aminoazole derivative” (Teijin Pharma Limited, priority 2015, dated 2020).

Assays:
[1] = target: T1, androgen receptor (AR-LBD) (Rattus norvegicus, UniProt P15207); assay: Evaluation of androgen receptor affinity (PolarScreen Androgen Receptor Competitor Assay Kit, Red; fluorescence polarization); details: 22° C. for 5 hours, relative to binding rate of 1 μM DHT, read-out: AR affinity (pEC50) (converted)
T1 construct: 5 μL of 2×AR-LBD/Fluoromone AL Red Complex contained in the kit; purchased Invitrogen
T1 sequence (P15207 651-882 limits assumed): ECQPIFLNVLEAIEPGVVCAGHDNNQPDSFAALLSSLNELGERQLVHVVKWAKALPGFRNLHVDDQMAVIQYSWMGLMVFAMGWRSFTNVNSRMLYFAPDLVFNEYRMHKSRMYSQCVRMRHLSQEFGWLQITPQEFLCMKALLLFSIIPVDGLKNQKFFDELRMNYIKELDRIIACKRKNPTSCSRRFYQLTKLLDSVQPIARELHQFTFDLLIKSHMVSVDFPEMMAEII
Procedure, shortened: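 Duplicate wells of test compound were mixed with the kit's rat AR-LBD–Fluoromone AL Red tracer complex and left 5 hours at 22 °C before polarization was read. A 4-parameter fit gave pEC50, with binding rate referenced to 1 μM dihydrotestosterone.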

[2] = target: T2, human androgen receptor (Homo sapiens, UniProt P10275); assay: Reporter assay of an androgen receptor responsive sequence (luciferase, transiently transfected HEK293 cells); assay type: cell-based; details: 24 hours incubation, relative to activity of 100 nM DHT, read-out: AR transcriptive activity (pEC50) (converted)
T2 construct: expressed in transfected cells; host or cells: HEK293
T2 sequence (P10275 1-920): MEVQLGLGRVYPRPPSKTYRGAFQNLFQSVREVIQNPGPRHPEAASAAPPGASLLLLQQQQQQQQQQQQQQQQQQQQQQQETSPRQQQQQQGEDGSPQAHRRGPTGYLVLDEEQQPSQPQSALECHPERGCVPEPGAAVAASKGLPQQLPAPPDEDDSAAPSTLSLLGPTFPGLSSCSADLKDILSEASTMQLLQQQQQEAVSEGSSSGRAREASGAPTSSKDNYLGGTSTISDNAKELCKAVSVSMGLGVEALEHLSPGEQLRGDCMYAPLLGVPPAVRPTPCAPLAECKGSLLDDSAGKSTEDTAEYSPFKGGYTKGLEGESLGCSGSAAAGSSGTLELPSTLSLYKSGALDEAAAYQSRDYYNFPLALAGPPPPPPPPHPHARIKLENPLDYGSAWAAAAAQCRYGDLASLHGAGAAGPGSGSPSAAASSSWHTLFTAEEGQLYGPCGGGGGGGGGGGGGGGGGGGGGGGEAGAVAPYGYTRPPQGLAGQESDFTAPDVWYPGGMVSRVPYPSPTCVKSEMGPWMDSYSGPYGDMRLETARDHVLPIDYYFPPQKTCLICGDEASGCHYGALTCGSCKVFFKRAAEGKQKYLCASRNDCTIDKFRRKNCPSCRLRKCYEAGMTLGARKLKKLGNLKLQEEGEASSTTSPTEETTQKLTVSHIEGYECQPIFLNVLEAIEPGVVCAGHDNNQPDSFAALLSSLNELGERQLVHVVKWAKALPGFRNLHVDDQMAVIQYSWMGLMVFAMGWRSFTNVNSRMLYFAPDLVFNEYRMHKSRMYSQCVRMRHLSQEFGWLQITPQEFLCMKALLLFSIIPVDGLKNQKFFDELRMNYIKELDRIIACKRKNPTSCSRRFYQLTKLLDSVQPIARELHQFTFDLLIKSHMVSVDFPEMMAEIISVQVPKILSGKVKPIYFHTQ
Procedure, shortened: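 Agonism scored as pEC50, fitted by 4-parameter curve against the response to 100 nM DHT, from dual-luciferase readout after 24 h compound treatment. Cells were HEK293 co-transfected (3 h) with human AR expression vector, androgen-responsive firefly reporter and Renilla control, in charcoal-stripped serum.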

| EC50 [1] [µM] | EC50 [2] [µM] | SMILES |
| --- | --- | --- |
| 0.0398 | 0.2 | CCc1oc(N(Cc2ccc(Cl)c(F)c2)c2ccc(C#N)cc2)nc1C(=O)NS(C)(=O)=O [Compound 651, 2-[N-[(4-chloro-3-fluoro-phenyl)methyl]-4-cyano-anilino]-5-ethyl-N-methylsulfonyl-oxazole-4-carboxamide] |
| 0.0398 | 0.0631 | Cc1sc(N(Cc2ccc(F)cc2)c2ccc(C#N)cc2)nc1C(=O)NS(=O)(=O)Cc1ccncc1 [Compound 501, 2-[4-cyano-N-[(4-fluorophenyl)methyl]anilino]-5-methyl-N-(4-pyridylmethylsulfonyl)thiazole-4-carboxamide] |
| 0.0631 | 0.501 | Cc1sc(N(Cc2ccc(OCC(F)F)cc2)c2ccc(C#N)cc2)nc1C(=O)NS(C)(=O)=O [Compound 577, 2-[4-cyano-N-[[4-(2,2-difluoroethoxy)phenyl]methyl]anilino]-5-methyl-N-methylsulfonyl-thiazole-4-carboxamide] |
| 0.1 | 0.0794 | CS(=O)(=O)NC(=O)c1nc(N(Cc2ccccc2F)c2ccc(C#N)cc2)sc1Cl [Example 257, 5-chloro-2-[4-cyano-N-[(2-fluorophenyl)methyl]anilino]-N-methylsulfonyl-thiazole-4-carboxamide] |
| 0.126 | 0.501 | Cc1sc(N(CCc2ccc(Cl)cc2)Cc2nc(C3CC3)no2)nc1C(=O)NS(C)(=O)=O [Compound 161, 2-[2-(4-chlorophenyl)ethyl-[(3-cyclopropyl-1,2,4-oxadiazol-5-yl)methyl]amino]-5-methyl-N-methylsulfonyl-thiazole-4-carboxamide] |
| 0.251 | > 10 | Cc1sc(N(CCc2ccc(C#N)cc2)Cc2ccc(OC(F)(F)F)cc2)nc1C(=O)NS(=O)(=O)C(F)(F)F [Compound 722, 2-[2-(4-cyanophenyl)ethyl-[[4-(trifluoromethoxy)phenyl]methyl]amino]-5-methyl-N-(trifluoromethylsulfonyl)thiazole-4-carboxamide] |
| 0.0316 | 0.398 | COCCCS(=O)(=O)NC(=O)c1nc(N(Cc2ccc(OC(F)F)cc2F)c2ccc(C#N)cc2)sc1C [Compound 523, 2-[4-cyano-N-[[4-(difluoromethoxy)-2-fluoro-phenyl]methyl]anilino]-N-(3-methoxypropylsulfonyl)-5-methyl-thiazole-4-carboxamide] |
| 0.0251 | 0.0631 | Cc1sc(N(Cc2ccc(F)c(Cl)c2)c2ccc(C#N)cc2)nc1C(=O)NS(C)(=O)=O [Compound 117, 2-[N-[(3-chloro-4-fluoro-phenyl)methyl]-4-cyano-anilino]-5-methyl-N-methylsulfonyl-thiazole-4-carboxamide] |
| 0.158 | 0.316 | Cc1sc(N(Cc2ccc(F)cc2)c2ccc(C(F)(F)F)nc2)nc1C(=O)NS(C)(=O)=O [Compound 469, 2-[(4-fluorophenyl)methyl-[6-(trifluoromethyl)-3-pyridyl]amino]-5-methyl-N-methylsulfonyl-thiazole-4-carboxamide] |
| 0.0251 | 0.0251 | Cc1ccc(CN(c2ccc(C#N)cc2)c2nc(C(=O)NS(C)(=O)=O)c(C)s2)cc1 [Compound 17, 2-[4-cyano-N-(p-tolylmethyl)anilino]-5-methyl-N-methylsulfonyl-thiazole-4-carboxamide] |
| 0.0398 | 0.0631 | Cc1sc(N(Cc2ccc(C(F)F)cc2F)c2ccc(C#N)cc2)nc1C(=O)NS(C)(=O)=O [Compound 156, 2-[4-cyano-N-[[4-(difluoromethyl)-2-fluoro-phenyl]methyl]anilino]-5-methyl-N-methylsulfonyl-thiazole-4-carboxamide] |
| 0.0398 | 0.0501 | Cc1sc(N(CC2=CCCCC2)c2ccc(C#N)cc2)nc1C(=O)NS(C)(=O)=O [Compound 366, 2-[4-cyano-N-(cyclohexen-1-ylmethyl)anilino]-5-methyl-N-methylsulfonyl-thiazole-4-carboxamide] |
| 0.0631 | 1.26 | Cc1oc(N(CCc2ccc(Cl)cc2)Cc2ccc(Cl)cn2)nc1C(=O)NS(C)(=O)=O [Compound 549, 2-[2-(4-chlorophenyl)ethyl-[(5-chloro-2-pyridyl)methyl]amino]-5-methyl-N-methylsulfonyl-oxazole-4-carboxamide] |
| 0.0631 | 0.126 | Cc1sc(N(Cc2cc(F)c(F)cc2F)c2ccc(C#N)cc2)nc1C(=O)NS(C)(=O)=O [Compound 110, 2-[4-cyano-N-[(2,4,5-trifluorophenyl)methyl]anilino]-5-methyl-N-methylsulfonyl-thiazole-4-carboxamide] |
| 0.0501 | 0.501 | Cc1sc(N(Cc2cnc(C(F)(F)F)c(Cl)c2)c2ccc(C#N)cc2)nc1C(=O)NS(C)(=O)=O [Compound 530, 2-[N-[[5-chloro-6-(trifluoromethyl)-3-pyridyl]methyl]-4-cyano-anilino]-5-methyl-N-methylsulfonyl-thiazole-4-carboxamide] |
| 0.631 | > 10 | Cc1sc(N(CCc2ccc(C#N)cc2)CC2CCCCC2)nc1C(=O)NS(C)(=O)=O [Compound 716, 2-[2-(4-cyanophenyl)ethyl-(cyclohexylmethyl)amino]-5-methyl-N-methylsulfonyl-thiazole-4-carboxamide] |
| 0.0631 | 0.0251 | Cc1sc(N(Cc2ccc(Cl)cc2)c2ccc(C#N)cc2)nc1C(=O)NS(C)(=O)=O [Compound 23, 2-[N-[(4-chlorophenyl)methyl]-4-cyano-anilino]-5-methyl-N-methylsulfonyl-thiazole-4-carboxamide] |
| > 2 | 7.94 | Cc1sc(N(Cc2ccc(Br)c(Cl)c2)c2ccc(C#N)cc2)nc1C(=O)NS(C)(=O)=O [Compound 528, 2-[N-[(4-bromo-3-chloro-phenyl)methyl]-4-cyano-anilino]-5-methyl-N-methylsulfonyl-thiazole-4-carboxamide] |
| 0.02 | 0.126 | Cc1oc(N(Cc2cc3ccccc3s2)c2ccc(C#N)cc2)nc1C(=O)NS(C)(=O)=O [Compound 618, 2-[N-(benzothiophen-2-ylmethyl)-4-cyano-anilino]-5-methyl-N-methylsulfonyl-oxazole-4-carboxamide] |
| 0.0631 | 0.126 | COc1cccc(CN(c2ccc(C#N)cc2)c2nc(C(=O)NS(C)(=O)=O)c(C)s2)c1 [Compound 3, 2-[4-cyano-N-[(3-methoxyphenyl)methyl]anilino]-5-methyl-N-methylsulfonyl-thiazole-4-carboxamide] |
| 0.0794 | > 10 | Cc1sc(N(Cc2ccccc2)c2ccc(C#N)cc2)nc1C(=O)NS(=O)(=O)CS(C)(=O)=O [Compound 382, 2-(N-benzyl-4-cyano-anilino)-5-methyl-N-(methylsulfonylmethylsulfonyl)thiazole-4-carboxamide] |
| 0.0501 | 0.2 | Cc1sc(N(CCC2CCCCC2)c2ccc(C#N)cc2)nc1C(=O)NS(C)(=O)=O [Compound 407, 2-[4-cyano-N-(2-cyclohexylethyl)anilino]-5-methyl-N-methylsulfonyl-thiazole-4-carboxamide] |
| 0.0316 | 0.158 | Cc1sc(N(Cc2ccc(-c3ccccc3F)cc2)c2ccc(C#N)cc2)nc1C(=O)NS(C)(=O)=O [Compound 590, 2-[4-cyano-N-[[4-(2-fluorophenyl)phenyl]methyl]anilino]-5-methyl-N-methylsulfonyl-thiazole-4-carboxamide] |
| 0.0316 | 0.126 | Cc1sc(N(Cc2ccc(OC(F)(F)F)cc2)c2ccc(C#N)cc2)nc1C(=O)NS(=O)(=O)CC1CCOC1 (stereo not drawn) [Example 202, 2-[4-cyano-N-[[4-(trifluoromethoxy)phenyl]methyl]anilino]-5-methyl-N-(tetrahydrofuran-3-ylmethylsulfonyl)thiazole-4-carboxamide] |
